Holding throughout (format): cell-based
Data set [1] relates to SH-SY5Y human neuroblastoma cells. Kind of data set: Toxicity: LDH activity release in SH-SY5Y cells. The following applies: 24 h; for Maximum concentration tested for toxicity: increasing concentrations from 1 μM up to 1 mM. Here is the method:
The potential effects on cell viability of the assayed compounds are assayed in SH-SY5Y human neuroblastoma cells, by quantification of Lactate dehydrogenase (LDH) activity release. SH-SY5Y human neuroblastoma cells are seeded into 96-well culture plates at 10^4 cells/well. The medium is then removed and the cells incubated with different concentrations of the compounds during 24 h. The compounds are tested at increasing concentrations starting from 1 μM, in fresh culture medium, in order to find the minimum concentration at which the compounds are toxic, up to a maximum of 1 mM. After 24 h, the medium is removed and cells attached to the bottom of the well are lysed by adding 50 μl of Krebs-Hepes; Triton X-100 1% during 5 minutes at room temperature. For LDH release quantification, the Roche cytotoxicity detection kit (Cat.
No. 11 644 793 001) is used. The LDH activity is measured by its absorbance at 492 nm with reference wavelength 620 nm.
In Table 1, for each compound the maximum concentration at which toxicity was tested is indicated in the second column. In the third column, it is indicated whether at this maximum concentration the compound was toxic or not. All the compounds, with the exception of Compound 3, resulted non-toxic at the concentration for which activity was found, in most of the cases even at a 1000-fold concentration. Thus, the compounds may be considered non-toxic.

The test system is the same in data set [2]. Kind of data set: Protection against hydrogen peroxide-induced cell death (LDH). The following applies: Homo sapiens, SH-SY5Y, compound 1 h before H2O2 100 μM, 24 h, read-out: Protect. H2O2 (minimum concentration for which protection was determined). The protocol:
The aim of this assay is to determine the neuroprotective effect of the compounds of formula (I), when human neuroblastoma cells are exposed to oxidative stress induced by hydrogen peroxide, which is highly deleterious to the cell and its accumulation causes oxidation of cellular targets such as DNA, proteins, and lipids leading to mutagenesis and cell death.
SH-SY5Y human neuroblastoma cells are seeded into 96-well culture plate at a density of 10^4 cells/well. Cells are exposed to different concentrations of the compound one hour before the treatment with H2O2 100 μM during 24 h. 5 mM N-acetylcysteine (NAC), a known anti-oxidant agent was used as a positive control, and preincubated 1 hour before the treatment with H2O2. After 24 h, the medium is removed and cells attached to the bottom of the well are lysed by adding 50 μl of Triton X-100 1% in Krebs-Hepes during 5 minutes at room temperature. For LDH release quantification, Roche cytotoxicity detection kit (Cat. No. 11 644 793 001) was used.

For data set [3] the test system is unchanged. Kind of data set: Protection against 6-OHDA-induced cell death, condition A (10% foetal bovine serum). The following applies: preincubated 2 hours, 6-OHDA 75 μM 16 hours, read-out: Protect. 6-OHDA (+ FBS) (minimum concentration with neuroprotective effect). The text has this:
(§1) The aim of this experiment is to determine the protective effect of the compounds of formula (1) against the toxicity caused by 6-OHDA. This toxin induces a cell death similar to which occurs in Parkinson's disease, destroying dopaminergic neurons (“MPTP and 6-hydroxydopamine-induced neurodegeneration as models for Parkinson's disease: neuroprotective strategies”; Grunblatt E, et al.; J Neurol. 2000 Apr; 247 Suppl 2:II95-102).
(§2) Two or three days before the experiment, the SH-SY5Y human neuroblastoma cells are seeded into 96-well culture plate at a density of 10^4 cells/well. Cells are exposed to the treatment with 6-OHDA and, finally, cell death is measured by LDH quantification. As positive control we used NAC.
• A) NAC and the compound of formula (I) are preincubated during 2 hours before the treatment with 6-OHDA 75 μM during 16 hours. The assay is performed in medium containing 10% Foetal bovine serum.
(§3) For each compound the minimum concentration of compound of formula (I) at which a neuroprotective effect is shown.

The test system is the same in data set [4]. Description: Protection against 6-OHDA-induced cell death, condition B (no fetal bovine serum). The following applies: preincubated 1 hour, 6-OHDA 50 μM 24 hours, read-out: Protect. 6-OHDA (−FBS) (minimum concentration with neuroprotective effect).
From the text: as §1, §2
• B) NAC and the compound of formula (I) are preincubated during 1 hour before the treatment with 6-OHDA 50 μM during 24 hours. The assay is performed in a medium without any fetal bovine serum.
as §3

Data set [5] has as its system SH-SY5Y cells. Description: Neuroprotection against Aβ25-35 toxicity (LDH assay). The following applies: Homo sapiens, pre-treated 1 hour, 200 μM Aβ25-35 24 hours, read-out: Protect. beta-Amyloid25-35 (minimum concentration showing neuroprotection). The protocol: In order to evaluate potential neuroprotection of compounds, SH-SY5Y cells, cultured in 96-well plates, were pre-treated for 1 hour with the compound at different concentrations and then exposed 24 hours to 200 μM Aβ25-35 (Neosystem) to induce extensive oxidative stress and cell death. The ability of the compound of protecting against this toxicity is then evaluated by measuring intracellular LDH, using the colorimetric LDH assay.
It is widely accepted that the neurotoxic activity of Aβ resides within amino acids 25-35 (see e.g. Yankner B A et al., (1990) Neurotrophic and neurotoxic effects of amyloid β protein: reversal by tachykinin neuropeptides; Science 250:279-282).

Data set [6] relates to Aβ (1-40) secretion by CHO7W cells (stably transfected with human APP751 wt cDNA). Kind of data set: Inhibition of Aβ(1-40) secretion (ELISA, cellular supernatants). The following applies: Aβ 1-40 ELISA. The text has this:
To quantitate Aβ secretion ELISA-based method was used. The assay consists in detection of antigen by selective monoclonal anti-Aβ-antibodies at two different epitopes forming a “Sandwich-complex”, that is detected by colorimetric measure due to the binding of a secondary antibody conjugated with peroxidase that catalyses the conversion of a substrate or chromogen, TMB, into a coloured product, directly proportional to the peptide quantity in the sample. The Aβ production has been analyzed by ELISA, using a colorimetric commercial kit: Immunoassay Kit Human β Amyloid 1-40 (Biosource).
Aβ (1-40) were quantified from cellular supernatants. An APP-transfected cell line has been employed for the experiments: CHO7W (stably transfected with human APP751 wt cDNA). The cells were grown in a culture medium consisting of DMEM supplemented with 2% Fetal bovine serum, 1% penicillin-streptomycin, 1% L-glutamine and 200 μg/ml G418. Cells are seeded in 96-well culture microplate, at 5000 cells/well and treatment with different compounds at different concentrations is performed 24 hour after seeding.
OM99-2 (H-5108, Bachem), a BACE inhibitor, was used as Aβ secretion reduction positive control in all the Aβ secretion studies. The cells were treated with this compound at 3 μM concentration, culture media were collected at 24 hours.
Background: In an ELISA, binding on a coated surface is turned into a signal by an enzyme label.

As to `COc1cc(C=NO)nc2c1ccc1cccnc12` [Compound 1, 4-Methoxy-[1,10]phenanthroline-2-carbaldehyde oxime], the “Maximum concentration tested for toxicity” value in data set [1] was determined as 1 mM. Besides, the “Toxic at maximum concentration tested (Yes/No)” value (“Toxic … (Yes/No)” for short) in data set [1] (at 1 mM) is recorded as “Yes”. Moreover, the minimal effective concentration in data set [2] was 0.05 µM; in data set [3], 0.5 µM; in data set [4], 0.5 µM; in data set [5] it was 5 µM. In addition, the “Inhibition secretion beta-amyloid (minimum concentration)” value (from here on “Inhibition secretion beta-amyloid”) in data set [6] was found to be 0.01 mM.

`Cc1nnc(Sc2cc(C=NO)nc3c2ccc2cccnc23)s1` [Compound 18, 4-(5-Methyl-[1,3,4]thiadiazol-2-ylsulfanyl)-[1,10]phenanthroline-2-carbaldehyde oxime]: the “Maximum concentration tested for toxicity” value in data set [1] worked out at 0.01 mM. The “Toxic … (Yes/No)” value in data set [1] (at 10 μM) is “Yes”. The minimal effective concentration worked out at 0.05 µM in data set [2]; 0.05 µM in data set [3]; 10 µM in data set [4]; 10 µM in data set [5]; 0.1 µM in data set [6] (Homo sapiens, CHO-7W, read-out: Inhibition secretion beta-amyloid (minimum concentration)).

On to `NCCOc1cc(/C=N/O)nc2c1ccc1cccnc12` [Compound 9, 4-(2-Amino-ethoxy)-[1,10]phenanthroline-2-carbaldehyde oxime], for which, in data set [1], the “Maximum concentration tested for toxicity” value amounted to 0.01 mM. For the same compound, the “Toxic … (Yes/No)” value in data set [1] (at 10 μM) is recorded as “No”. Further, the minimal effective concentration in data set [2], in data set [3], in data set [4] and in data set [5] was 5 µM throughout. Also, the “Inhibition secretion beta-amyloid” value in data set [6] was found to be 10 mM.

Consider `ON=Cc1cc(Cl)c2ccc3cccnc3c2n1` [Compound 2, 4-Chloro-[1,10]phenanthroline-2-carbaldehyde oxime], for which the “Maximum concentration tested for toxicity” value in data set [1] worked out at 1 mM. For the same compound, the “Toxic … (Yes/No)” value in data set [1] (at 1 mM) is given as “Yes”. In addition, the minimal effective concentration came out at 0.05 µM in data set [2], 0.5 µM in data set [3], 0.5 µM in data set [4] and 10 µM in data set [5]. Moreover, the “Inhibition secretion beta-amyloid” value in data set [6] is listed as 1 mM.
